Source: US12466820B2, “Amino quinazoline derivatives as P2X3 inhibitors” (CHIESI FARMACEUTICI S.p.A., priority 2019, dated 2025)

Legend:
h P2X2/3 = target: T1, h P2X2/3 (Homo sapiens, UniProt P56373+Q9UBL9); assay: In vitro electrophysiology assay for P2X2/3 (same protocol, 10 μM ATP as agonist); type: cell-based; details: Table 7, range of activity
T1 sequence (P56373 1-397): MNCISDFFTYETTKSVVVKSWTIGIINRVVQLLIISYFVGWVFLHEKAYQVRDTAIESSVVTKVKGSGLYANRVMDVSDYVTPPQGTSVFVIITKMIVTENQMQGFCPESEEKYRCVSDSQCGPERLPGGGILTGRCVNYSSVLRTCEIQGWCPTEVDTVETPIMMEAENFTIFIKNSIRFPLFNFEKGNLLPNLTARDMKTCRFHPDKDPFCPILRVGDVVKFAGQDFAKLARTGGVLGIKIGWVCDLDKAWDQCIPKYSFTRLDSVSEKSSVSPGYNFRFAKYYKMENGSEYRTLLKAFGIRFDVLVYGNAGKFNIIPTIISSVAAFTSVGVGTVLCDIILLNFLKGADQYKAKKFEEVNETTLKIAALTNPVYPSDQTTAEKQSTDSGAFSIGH
T1 sequence (Q9UBL9 1-471): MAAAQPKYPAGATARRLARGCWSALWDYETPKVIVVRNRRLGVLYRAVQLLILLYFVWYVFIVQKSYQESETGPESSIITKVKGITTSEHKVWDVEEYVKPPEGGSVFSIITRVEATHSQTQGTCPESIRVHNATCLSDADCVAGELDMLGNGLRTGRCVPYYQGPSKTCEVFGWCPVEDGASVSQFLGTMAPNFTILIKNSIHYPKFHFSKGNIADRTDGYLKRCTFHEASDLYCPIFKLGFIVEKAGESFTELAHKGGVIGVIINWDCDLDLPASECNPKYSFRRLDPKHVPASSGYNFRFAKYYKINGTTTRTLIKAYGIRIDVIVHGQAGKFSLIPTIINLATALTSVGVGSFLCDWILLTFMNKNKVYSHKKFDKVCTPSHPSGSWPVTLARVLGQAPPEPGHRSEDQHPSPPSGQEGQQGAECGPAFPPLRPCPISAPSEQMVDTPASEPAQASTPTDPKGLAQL
Method: Cells expressing P2X3 receptors were grown according to standard practice and maintained at 37° C. in a 5% humidified CO2 atmosphere. The cells were seeded into T175 flask 2 days prior to the day of the assay and dissociated from the flasks using TrypLE when grown to confluence of 80-90%. The dissociated cells were resuspended in serum free media at a cell density of 3×10^6 cells/ml and loaded onto the Sophion Qube automated patch-clamp system. The extracellular assay buffer contained 145 mM NaCl, 4 mM KCl, 2 mM CaCl2), 1 mM MgCl2, 10 mM HEPES, and 10 mM glucose at pH 7.4. The intracellular assay solution contained 140 mM CsF, 10 mM NaCl, 10 mM EGTA, 10 mM HEPES at pH 7.2. Agonist stock solutions were prepared in H2O and diluted in bath solution prior to use. All antagonists were prepared as 10 mM stock solutions in DMSO and diluted in bath solution prior to use. All experiments were performed under the whole-cell patch clamp configuration at room temperature with 384 individual cells being voltage clamped at −60 mV simultaneously on the Sophion Qube instrument. Two baseline responses were established with the application of α,β-MeATP (800 nM), with the subsequent agonist applications being washed out using extracellular assay buffer containing 0.5 U/ml apyrase. Following the second agonist application, antagonist was incubated in the absence of α,β-MeATP for 10 minutes. After antagonist preincubation, 800 nM α,β-MeATP and antagonist were co-administered to determine the inhibitory effect of the antagonist. One concentration of an antagonist was assessed against a single cell, with different concentrations of the antagonist applied to other cells on the 384 recording substrate. The control P2X3 current amplitude was taken from the peak current amplitude from the second agonist response prior to preincubation with antagonist. The peak P2X3 current amplitude in the presence of antagonist was used to calculate the inhibitory effect at each concentration of the antagonist according to the following equation: […]
Concentration-response curves were constructed from ten different concentrations with each concentration of antagonist tested on at least two individual cells. The concentration of the antagonist to inhibit P2X3 current by 50% (IC50) was determined by fitting the data with the following equation: […]
Where ‘a’ is minimum response, ‘b’ is maximum response, ‘c’ is IC50 and ‘d’ is Hill slope.
Representative compound of the present invention have been also tested for P2X2/3 receptor.
The same assay protocol was used for the P2X2/3 assay as the P2X3 assay with two modifications: 1) 10 μM ATP was used as the agonist; and 2) the mean current amplitude was measured seven seconds after the application of agonist.

h P2X3 = target: T2, h P2X3 (Homo sapiens, UniProt P56373); assay: In vitro electrophysiology assay for P2X3 (automated whole-cell patch clamp, Sophion Qube); type: cell-based; details: range of activity
T2 sequence (P56373 1-397): T1 sequence (P56373 1-397)
Outline: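 Whole-cell automated patch clamp at room temperature, cells held at −60 mV; after two 800 nM α,β-MeATP baseline responses, antagonist preincubated 10 min then co-applied with 800 nM α,β-MeATP. Inhibition of peak current vs second agonist response; IC50 from 10-concentration curves, one concentration per cell.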

[1] = Table 6, inhibition of P2X3 current, agonist α,β-MeATP (800 nM)

Row | IC50 (h P2X2/3) | IC50 (h P2X3; [1]) | IC50 (h P2X3; Table 7) | h P2X2/3 (h P2X2/3) | Structure (SMILES)
1 | 3160 to 31600 nM | < 316 nM | < 316 nM |  | COc1cc(-c2ccc(F)cn2)cc2c(NC(C)c3ccc(C(F)(F)F)nn3)ncnc12 (single isomer, unassigned) [Example 169, 6-(5-fluoro-2-pyridyl)-8-methoxy-N-[1-[6-(trifluoromethyl)pyridazin-3-yl]ethyl]quinazolin-4-amine]
2 | 3160 to 31600 nM | 316 to 3160 nM | 316 to 3160 nM |  | COc1cc(-c2ccc(F)cn2)cc2c(NC(C)c3nnc(C)s3)ncnc12 (single isomer, unassigned) [Example 173, 6-(5-fluoropyridin-2-yl)-8-methoxy-N-(1-(5-methyl-1,3,4-thiadiazol-2-yl)ethyl)quinazolin-4-amine]
3 |  | < 316 nM | < 316 nM | + (+: 5.5<pIC50 h P2X3 or h P2X2/3>4.5) | COc1cc(-c2ccc(F)cn2)cc2c(NC(C)c3nnc(C)s3)ncnc12 (single isomer, unassigned) [Example 174, 6-(5-fluoropyridin-2-yl)-8-methoxy-N-(1-(5-methyl-1,3,4-thiadiazol-2-yl)ethyl)quinazolin-4-amine]
4 | 3160 to 31600 nM | < 316 nM | < 316 nM |  | COc1cc(-c2ccc(F)cn2)cc2c(NC(C)c3nc(C)no3)ncnc12 (single isomer, unassigned) [Example 176, 6-(5-fluoropyridin-2-yl)-8-methoxy-N-(1-(3-methyl-1,2,4-oxadiazol-5-yl)ethyl)quinazolin-4-amine]
5 | 3160 to 31600 nM | 316 to 3160 nM | 316 to 3160 nM |  | COc1cc(-c2ccc(F)cc2)cc2c(NC(C)c3cccc(=O)[nH]3)ncnc12 (single isomer, unassigned) [Example 190, 6-(1-((6-(4-Fluorophenyl)-8-methoxyquinazolin-4-yl)amino)ethyl)pyridin-2(1H)-one]
6 | 316 to 3160 nM | < 316 nM | < 316 nM |  | COc1cc(-c2ccc(F)cc2)cc2c(NC(C)c3cccc(=O)[nH]3)ncnc12 (single isomer, unassigned) [Example 191, 6-(1-((6-(4-Fluorophenyl)-8-methoxyquinazolin-4-yl)amino)ethyl)pyridin-2(1H)-one]
7 | 316 to 3160 nM | < 316 nM | < 316 nM |  | COc1cc(-c2ccc(F)cc2)cc2c(NC(C)c3nc(-c4ccncc4)no3)ncnc12 (single isomer, unassigned) [Example 193, 6-(4-fluorophenyl)-8-methoxy-N-(1-(3-(pyridin-4-yl)-1,2,4-oxadiazol-5-yl)ethyl)quinazolin-4-amine]
8 | 3160 to 31600 nM | < 316 nM | < 316 nM |  | COc1cc(-c2ccc(F)cn2)cc2c(NC(C)c3nc(C)no3)ncnc12 (stereo not drawn) [Example 2, 6-(5-fluoropyridin-2-yl)-8-methoxy-N-(1-(3-methyl-1,2,4-oxadiazol-5-yl)ethyl)quinazolin-4-amine]

The next lines start with the compound.

Row | Structure (SMILES) | IC50 (h P2X2/3) | IC50 (h P2X3; [1]) | IC50 (h P2X3; Table 7) | h P2X2/3 (h P2X2/3)
9 | Cc1cnc(-c2cc(OC3CCOCC3)c3ncnc(NC(C)c4ccc(C)nn4)c3c2)nc1 (single isomer, unassigned) [Example 28, N-[1-(6-methylpyridazin-3-yl)ethyl]-6-(5-methylpyrimidin-2-yl)-8-tetrahydropyran-4-yloxy-quinazolin-4-amine] | 316 to 3160 nM | < 316 nM | < 316 nM | 
10 | COc1cc(-c2ncc(C)cn2)cc2c(NC(C)c3ccc(C(F)(F)F)nn3)ncnc12 (single isomer, unassigned) [Example 121, 8-methoxy-6-(5-methylpyrimidin-2-yl)-N-[1-[6-(trifluoromethyl)pyridazin-3-yl]ethyl]quinazolin-4-amine] | 316 to 3160 nM | 316 to 3160 nM | < 316 nM | 
11 | COc1cc(-c2ncc(C)cn2)cc2c(NC(C)c3nc(C)no3)ncnc12 (single isomer, unassigned) [Example 123, 8-Methoxy-N-[1-(3-methyl-1,2,4-oxadiazol-5-yl)ethyl]-6-(5-methylpyrimidin-2-yl)quinazolin-4-amine] | 3160 to 31600 nM | < 316 nM | < 316 nM | 
12 | COc1cc(-c2ccc(C)cn2)cc2c(NC(C)c3nnc(C)s3)ncnc12 (single isomer, unassigned) [Example 127, 8-methoxy-6-(5-methyl-2-pyridyl)-N-[1-(5-methyl-1,3,4-thiadiazol-2-yl)ethyl]quinazolin-4-amine] | 3160 to 31600 nM | < 316 nM | < 316 nM | 
13 | COc1cc(-c2ncc(C)cn2)cc2c(NC(C)c3nnc(C)o3)ncnc12 (single isomer, unassigned) [Example 129] | 3160 to 31600 nM | < 316 nM | < 316 nM | 
14 | COc1cc(-c2ccc(C)cn2)cc2c(NC(C)c3nc(C)no3)ncnc12 (single isomer, unassigned) [Example 163, 8-Methoxy-N-[1-(3-methyl-1,2,4-oxadiazol-5-yl)ethyl]-6-(5-methyl-2-pyridyl)quinazolin-4-amine] | 3160 to 31600 nM | < 316 nM | < 316 nM | 
15 | COc1cc(-c2ncc(C)cn2)cc2c(NC(CO)c3nc(C)no3)ncnc12 (single isomer, unassigned) [Example 166] | 3160 to 31600 nM | < 316 nM | < 316 nM | 
16 | COc1cc(-c2ncc(C)s2)cc2c(N[C@H](C)c3ccc(C)nn3)ncnc12 [Example 5, (R)-8-methoxy-N-(1-(6-methylpyridazin-3-yl)ethyl)-6-(5-methylthiazol-2-yl)quinazolin-4-amine] | 316 to 3160 nM | < 316 nM | < 316 nM | 
17 | COc1cc(-c2ncc(C)cn2)cc2c(N[C@H](C)c3noc(C)n3)ncnc12 [Example 7, 8-Methoxy-N-[(1R)-1-(5-methyl-1,2,4-oxadiazol-3-yl)ethyl]-6-(5-methylpyrimidin-2-yl)quinazolin-4-amine] | 3160 to 31600 nM | 316 to 3160 nM | 316 to 3160 nM | 
18 | C[C@@H](Nc1ncnc2c(-c3ccnnc3)cc(-c3ccc(F)cc3)cc12)c1cnc(C(F)(F)F)nc1 [Example 24, (R)-6-(4-fluorophenyl)-8-(pyridazin-4-yl)-N-(1-(2-(trifluoromethyl)pyrimidin-5-yl)ethyl)quinazolin-4-amine] | 3160 to 31600 nM | < 316 nM | < 316 nM | 
19 | Cc1ccc(CNc2ncnc3c(OC4CCOCC4)cc(-c4ccc(F)cn4)cc23)nn1 [Example 30, 6-(5-fluoro-2-pyridyl)-N-[(6-methylpyridazin-3-yl)methyl]-8-tetrahydropyran-4-yloxy-quinazolin-4-amine] | 3160 to 31600 nM | 316 to 3160 nM | 316 to 3160 nM | 
20 | COc1cc(-n2cc(C)cn2)cc2c(N[C@H](C)c3ccc(C)nn3)ncnc12 [Example 99, (R)-8-methoxy-6-(4-methyl-1H-pyrazol-1-yl)-N-(1-(6-methylpyridazin-3-yl)ethyl)quinazolin-4-amine] | 316 to 3160 nM | < 316 nM | < 316 nM | 
